Measured values as given in patent US20140227238A1, “PEPTIDES HAVING PROTECTIVE EFFECT TOWARDS THE INFLAMMATORY ACTIVITY OF PEPTIDE 31-43 OF A-GLIADIN IN CELIAC DISEASE” (CRA-CONSIGLIO PER LA RICERCA E LA, priority 2011, published 2014).
“Also recorded” adds a separate entry of the source.

Columns and labels:
[1] = system: intestinal biopsies from celiac patients; assay: Organ culture of celiac duodenal mucosa with gliadin PT digest, immunolocalization of immune activation labels (CD25+, ICAM1, HLA-DR); type: cell-based, human
Experimental: (§1) Duodenal mucosa samples have been treated in vitro for 3 and 24 hours using medium, gliadin PT digest (500 μg/mL), p31-43 (20 μg/ml), pRPQ (10 μg/ml). P7mer and pTPO (10 μg/ml) have been used in all the experiments as control peptides.
(§2) 4 μm thick sections of frozen biopsy samples from celiac patients have been fixed in acetone for 10 minutes. Then sections have been incubated for 2 hours at room temp. with following antibodies: anti-phospho-tyrosine PY99 mAb (1:80, IgG2b; Saint Cruz Biotechnology, Saint Cruz, Calif.), phospho-p42/p44 (1:500, polyclonal Ig; Cell Technology Beverly, USA), ICAM1 (1:500, Abcam, Cambridge, BUT, USA), HLA-DR (1:500, Abcam, Cambridge, BUT, USA). Antigene expression and distribution thereof within biopsy sample have been visualized by indirect immunofluorescence as previously described. Monoclonal isotype control (IgG1 and IgG2) has been used as control. Samples have been analyzed using Zeiss LSM510 confocal laser scanning unit (Carl Zeiss, Germany).

[2] = system: biopsies from celiac subjects; assay: Organ culture of celiac duodenal mucosa with p31-43, immunolocalization of Py99 and phospho-p42/p44; type: cell-based, human
Experimental: as §1, §2

K562(S) cells [3] = assay: K562(S) cell agglutination test; type: cell-based, human; details: for (Δ) O.D. (protecting activity): incubated together with p31-43; for protecting activity towards p31-43 induced agglutination of K562 cells: with p31-43
Experimental: K562(S) cells, an immature subclone of a cell line from a blastic phase chronic myelogenous leukemia patient, are cultured under 5% CO2 atmosphere at 37° C. in RPMI (Gibco, supplied by Invitrogen, Carlsbad, Calif., USA) containing 4.5 g/L glucose, 2 mM L-glutamine, 50 U/ml penicillin, […] streptomycin, 1% essential amino acids, 1% HEPES and 10% bovine fetal serum (FBS).
K562(S) cells to be used for agglutination test have been collected by centrifugation and washed two times with calcium and magnesium free PBS. Then cells have been resuspended at concentration of 10^8 cells/ml in PBS; […] of cell suspension added to each well of a 96 well plate. The peptide has been added at a concentration of 10 μg/ml. The final total volume has been 100 μl. Cell suspension has been incubated at room temp. for 30 minutes. Agglutination rate has been measured using a 96 well plate reader equipped with stirrer. Turbidity of cellular suspension has been measured at 600 nm (OD600 nm) under continuous stirring at 0 and 30 min times. The difference of T0 and T30 readings has been taken as agglutination rate (CV).

ICAM-1 in T84 cells = assay: Western blotting for expression of ICAM-1 in T84 cells; type: cell-based, human; details: 24 hours; for ICAM-1 level in T84 cells: peptide alone, 20 μg/ml, compared to medium only; for ICAM-1 level in T84 cells exposed to p31-43: peptide together with p31-43, 20 μg/ml each
Experimental: T84 human colonic carcinoma cells have been cultured under 5% CO2 atmosphere at 37° C. in 50% DMEM, (Gibco, supplied by Invitrogen, Carlsbad, Calif., USA) and 50% […] containing 4.5 g/L glucose, 2 mM L-glutamine, 50 U/ml penicillin, […] streptomycin, 1% essential amino acids, 1% HEPES and 10% bovine fetal serum (FBS).
T84 cells have been treated with p31-43 peptide in absence and presence of pRPQ, pDAV, p7mer (at peptide concentration of 20 μg/ml) and culture medium only (like negative control) for 24 hours at 37° C.
For WB analysis, T84 cells have been seeded at a concentration of 1×10^5 cells/ml in 12 well plate and shortly treated before confluence was reached. Treatment has been carried out using 20 μg/ml of medium for each peptide (p31-43, p7mer, pDAV, pRPQ) for 24 hours. In order the protecting activity of pDAV and pRPQ towards toxic effect of p31-43 to be tested, a pre-incubation for 3 hours using these peptides before the exposure to p31-43, has been performed. After incubation, cells have been treated with buffer containing 150 mM NaCl, 0.05% sodium dodecyl sulfate (SDS) and 1% Triton X-100. This mixture then has been centrifuged for 5 minutes at 4° C. Protein concentration has been measured according to […]. SDS-(Polyacryl amide Gel Electrophoresis) has been carried out using 4% and 7.5% gel. […] of protein have been loaded for each gel run. Then the proteins have been transferred on nitrocellulose membrane (Biorad). Membranes have been incubated overnight with mice anti-ICAM-1 monoclonal Abs (Abcam, Cambridge, UK) at 1:250 dilution. Successively, after washings, said membrane have been incubated with secondary antibody (peroxidase HRP:3000; Biorad). Membrane occurring proteins are detected using chemiluminescent detection kit (Biorad), according to producer instructions. Blot intensity of protein bands has been evaluated by Biorad ChemiDoc densitometer.

K562(S) cells [4] = details: earlier studies (6-9); cited from earlier work
TG2 = assay: In situ determination of TG2 activity in duodenal mucosa from celiac patients; type: cell-based, human; details: co-incubation with p31-43, biopsies from celiac subjects
Experimental: as §1
7 μm diameter sections have been collected on slide, pre-incubated with buffer (965 ml of 100 mmol/L Tris-HCl, pH 7.4, […] of 200 mmol/L CaCl2) for 15 minutes, and then pre-incubated with same buffer added with 10 ml of 10 mmol/L of biotinylated mono-dansylcadaverine (bio-MDC) (Molecular Probes, Leiden, The Netherlands) for 1 hour at room temp. The reaction is stopped using 25 mmol/L of EDTA for 5 minutes, then sections have been fixed in 4% paraformaldeide for 10 minutes. Labelled substrate incorporation has been visualized by incubation with streptavidin-conjugated RPE (1:50; Dako) for 30 minutes. Sections have been visualized fluorescently using Axioxop Zeiss 2 Plus micropurpose (Zeiss, Jena, Germany).

[5] = 10 μg/ml, difference of O.D at 600 nm at 0 and 30 minutes ×100, K562(S) cells
[6] = 500 μg/ml gliadin PT digest, 10 μg/ml peptide
[7] = p31-43 20 μg/ml, peptide 10 μg/ml

Substance | (Δ) O.D. (protecting activity) (K562(S) cells [3]; [5]) | protecting activity towards p31-43 induced agglutination of K562 cells (K562(S) cells [3]) | ICAM-1 level in T84 cells (ICAM-1 in T84 cells) | ICAM-1 level in T84 cells exposed to p31-43 (ICAM-1 in T84 cells) | also measured
LDPLIRGILLARPAKL QV (SEQ ID NO: 16) (LDPLIRGILLARPAKLQV; control irrilevant peptide) [TPO control peptide, control irrelevant peptide, reference compound] | – | – | – | – | protecting effect against the activation induced by gliadin ([1]; duodenal biopsies): lacking of any protecting effect; protecting effect against the activation induced by p31-43 ([2]; duodenal biopsies): lacking of any protecting effect
QQPQDAVQPF (SEQ ID NO: 1) (mutated omega-secalin peptide) [pDAV, decapeptide identified earlier in wheat peptic-triptic digest (WO9727217)] | −12 ± 1.9 | prevent p31-43 induced agglutination | No meaningful increase | ICAM-1 levels similar to cells exposed only to culture medium | prevention of agglutination of K562(S) cells by gliadin peptides (K562(S) cells [4]): suitable to prevent the agglutination of K562(S) cells by gliadin peptides
QQPQGGGQPF (SEQ ID NO: 13) (peptide corresponding to SEQ ID NO4 sequence wherein X is three G) [pGGG] | −7.9 ± 1.4 | displayed a protecting activity | – | – | –
QQPQQPF (SEQ ID NO: 3) (toxic gliadin peptide from aa 139 to aa 145 of omega-gliadin sequence having accession number AAT74547) [p7mer, 7mer peptide shared by pDAV and pRPQ, known to be toxic in CD, reference compound] | 1.5 ± 1.1 | does not display any protecting effect | increases ICAM-1 intracellular levels | does not exert any anti-inflammatory effect | agglutinant activity towards K562 cells (K562(S) cells [3]; peptide alone): displays also agglutinant activity; (Δ) O.D. (agglutinating activity) (K562(S) cells [3]; peptide alone, 10 μg/ml, difference of O.D at 600 nm at 0 and 30 minutes ×100, K562(S) cells): 1.0 ± 0.3; ICAM-1 level in T84 cells (ICAM-1 in T84 cells; listed as 7mer): poor increase; ICAM-1 level in T84 cells exposed to p31-43 (ICAM-1 in T84 cells; listed as 7mer): no meaningful decrease
QQPQRPQQPF (SEQ ID NO: 2) (peptide corresponding ro omega-secalin from aa 218 to aa 227 codified by the sequence deposited at NCBI with accession number FJ823438) [pRPQ] | −9.8 ± 1.7 | prevent p31-43 induced agglutination | No meaningful increase | ICAM-1 levels similar to cells exposed only to culture medium | gliadin induced increase of HLA-DR expression in mucosa [1, 6]: meaningfully prevents; also recorded: suitable to control; gliadin induced increase of ICAM1 expression in mucosa [1, 6]: meaningfully prevents; also recorded: suitable to control; gliadin induced increase of T CD25+ cells within lamina propria [1, 6]: suitable to control; mucosa immunity stimulating activity ([1]; peptide alone, duodenal biopsies from both celiac and healthy control subjects, data not shown): lacking in mucosa immunity stimulating activity; expression increase of Py99 [2, 7]: meaningfully prevents; p42/44 phosphorylation induced by p31-43 [2, 7]: meaningfully prevents; also recorded: prevents the increase; p31-43-induced TG2 activity (TG2): completely inhibited; p31-43-induced TG2 activity (TG2; listed as RPQ peptide): meaningfully prevents
QQPQWQPF (SEQ ID NO: 15) (peptide corresponding to SEQ ID NO4 sequence wherein X is W) [pW] | −9.1 ± 2.3 | – | – | – | –
QQPQYYYQPF (SEQ ID NO: 14) (peptide corresponding to SEQ ID No4 sequence wherein X is three Y) [pYYY] | −7 ± 2.5 | little higher protecting activity than pGGG | – | – | –
